The assay relates to Chlamydia pneumoniae. The experiment in a line: Growth inhibition of Chlamydia pneumoniae at 10 uM. The note with it: read-out: GI. The assay is classed as functional.

SMILES strings stand for the structures.

With `Cc1ccccc1C(=O)Nc1ccccc1`, the inhibition of growth at 10 µM came out at 99%.

For `Cc1ccccc1-c1nc2ccccc2[nH]1`, the inhibition of growth at 10 µM was determined as 59%.

For the compound `c1ccc(-c2nc3ccccc3[nH]2)cc1`, the inhibition of growth at 10 µM worked out at 89%.

As for `O=C(Nc1ccccc1)c1ccco1`, the inhibition of growth at 10 µM is 45%.

As for `O=C(Nc1ccccc1)c1ccsc1`, the inhibition of growth at 10 µM came out at 68%.

Take `O=C(Nc1ccccc1)c1ccccc1C(F)(F)F`: the inhibition of growth at 10 µM was 96%.

On to `Cn1c(-c2ccccc2)nc2ccccc21`, for which the inhibition of growth at 10 µM was 0%.

On to `O=C(Nc1ccccc1)c1cccs1`, for which the inhibition of growth at 10 µM came out at 89%.

Take `O=C(Nc1ccccc1)c1ccoc1`: the inhibition of growth at 10 µM stood at 78%.

In the case of `Cn1cccc1C(=O)Nc1ccccc1`, the inhibition of growth at 10 µM amounted to 80%.

Take `O=C(Nc1ccccc1)c1ccccc1F`: the inhibition of growth at 10 µM was determined as 0%.

Take `COc1ccccc1C(=O)Nc1ccccc1`: the inhibition of growth at 10 µM is 0%.

For the compound `O=C(Nc1ccccc1)c1cscn1`, the inhibition of growth at 10 µM is 39%.

Take `O=C(Nc1ccccc1)c1ccccn1`: the inhibition of growth at 10 µM amounted to 36%.

As to `c1ccc(-c2nc3ccccc3o2)cc1` [2-PHENYLBENZO[D]OXAZOLE], the inhibition of growth at 10 µM is 61%.

With `O=C(Nc1ccccc1)c1ccccc1` [N-PHENYLBENZAMIDE], the inhibition of growth at 10 µM was 99%.
